Results taken from US20240246908A1 (ORION CORPORATION, priority 2021, published 2024).

test system: YAP-TEAD; assay: TEAD inhibition, Hippo Pathway TEAD Reporter MCF-7 luciferase assay; format: cell-based; details: Homo sapiens, MCF7, 24 h, Hippo Pathway TEAD Reporter MCF-7 cells, luciferase activity after 24 h; read-out: IC50 of the test compounds on YAP-TEAD inhibition (Group)
Summary of the method: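 IC50 derived from ONE-Glo luciferase luminescence after 24 h compound exposure (11 concentrations in quadruplicate, 0.1% DMSO control). Reporter: MCF-7 line expressing firefly luciferase under TEAD elements, constitutively activated by nuclear YAP1.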

Structure (SMILES)	IC50 [nM]
CN1C(=O)CCC1C(=O)Nc1cc(Oc2ccc(C(F)(F)F)cc2)cc2ccoc12 (stereo not shown) [Compound 185, 1-Methyl-5-oxo-N-(5-(4-(trifluoromethyl)phenoxy)benzofuran-7-yl)pyrrolidine-2-carboxamide]	< 50
CN1C(=O)NCC1C(=O)Nc1cc(Oc2ccc(C(F)(F)F)cc2)cc2c1OCO2 (stereo not shown) [Compound 186, 3-Methyl-2-oxo-N-(6-(4-(trifluoromethyl)phenoxy)benzo[d][1,3]dioxol-4-yl)-imidazolidine-4-carboxamide]	< 50
O=C1CC(C(=O)Nc2cc(Oc3ccc(C(F)(F)F)cc3)cc3c2OCC3)CCN1 (stereo not shown) [Compound 187, 2-Oxo-N-(5-(4-(trifluoromethyl)phenoxy)-2,3-dihydrobenzofuran-7-yl)-piperidine-4-carboxamide]	< 50
CNC(=O)CN1C(=O)CCC1C(=O)Nc1cc(Oc2ccc(C(F)(F)F)cc2)cc2c1OCC2 (stereo not shown) [Compound 188, 1-(2-(Methylamino)-2-oxoethyl)-5-oxo-N-(5-(4-(trifluoromethyl)phenoxy)-2,3-dihydrobenzofuran-7-yl)pyrrolidine-2-carboxamide]	301 to 2000
NC(=O)CN1C(=O)CCC1C(=O)Nc1cc(Oc2ccc(C(F)(F)F)cc2)cc2c1OCC2 (stereo not shown) [Compound 189, 1-(2-Amino-2-oxoethyl)-5-oxo-N-(5-(4-(trifluoromethyl)phenoxy)-2,3-dihydro-benzofuran-7-yl)pyrrolidine-2-carboxamide]	< 50
O=C1CCC(C(=O)Nc2cc(OC3CCC(F)(F)CC3)cc3c2OCC3)CN1 (stereo not shown) [Compound 190, N-(5-((4,4-Difluorocyclohexyl)oxy)-2,3-dihydrobenzofuran-7-yl)-6-oxo-piperidine-3-carboxamide]	301 to 2000
O=C1CCC(C(=O)Nc2cc(OC3CCC(F)(F)CC3)cc3c2OCCO3)CN1 (stereo not shown) [Compound 191, N-(7-((4,4-Difluorocyclohexyl)oxy)-2,3-dihydrobenzo[b][1,4]dioxin-5-yl)-6-oxopiperidine-3-carboxamide]	301 to 2000
CN1C(=O)NCC1C(=O)Nc1cc(Oc2ccc(C(F)(F)F)cc2)cc2c1OCCO2 (stereo not shown) [Compound 192, 3-Methyl-2-oxo-N-(7-(4-(trifluoromethyl)phenoxy)-2,3-dihydrobenzo[b][1,4]-dioxin-5-yl)imidazolidine-4-carboxamide]	< 50
CN1C(=O)NCC1C(=O)Nc1cc(Oc2ccc(C(F)(F)F)cn2)cc2cn[nH]c12 (stereo not shown) [Compound 193, 3-Methyl-2-oxo-N-(5-((5-(trifluoromethyl)pyridin-2-yl)oxy)-1H-indazol-7-yl)-imidazolidine-4-carboxamide]	301 to 2000
CN1C(=O)NC[C@@H]1C(=O)Nc1cc(Oc2ccc(C(F)(F)F)cn2)ccc1F [Compound 196, (R)—N-(2-Fluoro-5-((5-(trifluoromethyl)pyridin-2-yl)oxy)phenyl)-3-methyl-2-oxoimidazolidine-4-carboxamide]	< 50
CN1C(=O)OCC1C(=O)Nc1cc(Oc2ccc(C(F)(F)F)cn2)ccc1F (stereo not shown) [Compound 197, N-(2-Fluoro-5-((5-(trifluoromethyl)pyridin-2-yl)oxy)phenyl)-3-methyl-2-oxooxazolidine-4-carboxamide]	50 to 300
CN1C(=O)OC[C@@H]1C(=O)Nc1cc(Oc2ccc(C(F)(F)F)cn2)ccc1F [Compound 198, (R)—N-(2-Fluoro-5-((5-(trifluoromethyl)pyridin-2-yl)oxy)phenyl)-3-methyl-2-oxooxazolidine-4-carboxamide]	50 to 300
CN1C(=O)OC[C@H]1C(=O)Nc1cc(Oc2ccc(C(F)(F)F)cn2)ccc1F [Compound 199, (S)—N-(2-Fluoro-5-((5-(trifluoromethyl)pyridin-2-yl)oxy)phenyl)-3-methyl-2-oxooxazolidine-4-carboxamide]	301 to 2000
COc1ccc(Oc2cc(C(F)(F)F)ccn2)cc1NC(=O)C1CNC(=O)N1C (stereo not shown) [Compound 200, N-(2-Methoxy-5-((4-(trifluoromethyl)pyridin-2-yl)oxy)phenyl)-3-methyl-2-oxoimidazolidine-4-carboxamide]	50 to 300
COc1ccc(Oc2cc(C(F)(F)F)ccn2)cc1NC(=O)C1CCC(=O)N1C (stereo not shown) [Compound 201, N-(2-Methoxy-5-((4-(trifluoromethyl)pyridin-2-yl)oxy)phenyl)-1-methyl-5-oxopyrrolidine-2-carboxamide]	301 to 2000
COc1ccc(Oc2ccc(F)cn2)cc1NC(=O)C1CCC(=O)N1C (stereo not shown) [Compound 202, N-(5-((5-Fluoropyridin-2-yl)oxy)-2-methoxyphenyl)-1-methyl-5-oxopyrrolidine-2-carboxamide]	301 to 2000
COc1ccc(Oc2ccc(Cl)cn2)cc1NC(=O)C1CCC(=O)N1C (stereo not shown) [Compound 203, N-(5-((5-Chloropyridin-2-yl)oxy)-2-methoxyphenyl)-1-methyl-5-oxo-pyrrolidine-2-carboxamide]	301 to 2000
COc1ccc(COC2CCC(F)(F)CC2)cc1NC(=O)C1CCC(=O)N1C (stereo not shown) [Compound 205, N-(5-(((4,4-Difluorocyclohexyl)oxy)methyl)-2-methoxyphenyl)-1-methyl-5-oxopyrrolidine-2-carboxamide]	301 to 2000
COc1ccc(OCC2CCC(F)(F)CC2)cc1NC(=O)C1CCC(=O)N1C (stereo not shown) [Compound 206, N-(5-((4,4-Difluorocyclohexyl)methoxy)-2-methoxyphenyl)-1-methyl-5-oxopyrrolidine-2-carboxamide]	< 50

Further lines, results first:

IC50 [nM]	Structure (SMILES)
< 50	CCN1C(=O)NCC1C(=O)Nc1cc(Oc2ccc(C(F)(F)F)cn2)cc2c1OCC2 (stereo not shown) [Compound 167, 3-Ethyl-2-oxo-N-(5-((5-(trifluoromethyl)pyridin-2-yl)oxy)-2,3-dihydrobenzo-furan-7-yl)imidazolidine-4-carboxamide]
< 50	CN1C(=O)NC[C@H]1C(=O)Nc1cc(Oc2ccc(C(F)(F)F)cn2)cc2c1OCC2 [Compound 168, (S)-3-Methyl-2-oxo-N-(5-((5-(trifluoromethyl)pyridin-2-yl)oxy)-2,3-dihydro-benzofuran-7-yl)imidazolidine-4-carboxamide]
50 to 300	CN1C(=O)NC[C@@H]1C(=O)Nc1cc(Oc2ccc(C(F)(F)F)cn2)cc2c1OCC2 [Compound 169, (R)-3-Methyl-2-oxo-N-(5-((5-(trifluoromethyl)pyridin-2-yl)oxy)-2,3-dihydro-benzofuran-7-yl)imidazolidine-4-carboxamide]
< 50	CCN1C(=O)CC[C@@H]1C(=O)Nc1cc(Oc2ccc(C(F)(F)F)cn2)cc2c1OCC2 [Compound 170, (R)-1-Ethyl-5-oxo-N-(5-((5-(trifluoromethyl)pyridin-2-yl)oxy)-2,3-dihydro-benzofuran-7-yl)pyrrolidine-2-carboxamide]
< 50	CCN1C(=O)CC[C@H]1C(=O)Nc1cc(Oc2ccc(C(F)(F)F)cn2)cc2c1OCC2 [Compound 171, (S)-1-Ethyl-5-oxo-N-(5-((5-(trifluoromethyl)pyridin-2-yl)oxy)-2,3-dihydro-benzofuran-7-yl)pyrrolidine-2-carboxamide]
50 to 300	C[C@H]1Cc2cc(Oc3ccc(C(F)(F)F)cn3)cc(NC(=O)[C@H]3CCC(=O)N3C)c2O1 [Compound 172, (2R)-1-Methyl-N-(2-methyl-5-((5-(trifluoromethyl)pyridin-2-yl)oxy)-2,3-di-hydrobenzofuran-7-yl)-5-oxopyrrolidine-2-carboxamide]
50 to 300	C[C@@H]1Cc2cc(Oc3ccc(C(F)(F)F)cn3)cc(NC(=O)[C@H]3CCC(=O)N3C)c2O1 [Compound 173, (2R)-1-Methyl-N-(2-methyl-5-((5-(trifluoromethyl)pyridin-2-yl)oxy)-2,3-di-hydrobenzofuran-7-yl)-5-oxopyrrolidine-2-carboxamide]
50 to 300	CN1C(=O)CC[C@H]1C(=O)Nc1cc(Oc2ccc(C(F)(F)F)cn2)cc2c1OCCC2 [Compound 174, (S)-1-Methyl-5-oxo-N-(6-((5-(trifluoromethyl)pyridin-2-yl)oxy)chroman-8-yl)pyrrolidine-2-carboxamide]
< 50	CN1C(=O)CC[C@@H]1C(=O)Nc1cc(Oc2ccc(C(F)(F)F)cn2)cc2c1OCCC2 [Compound 175, (R)-1-Methyl-5-oxo-N-(6-((5-(trifluoromethyl)pyridin-2-yl)oxy)chroman-8-yl)pyrrolidine-2-carboxamide]
< 50	CN1C(=O)NCC1C(=O)Nc1cc(Oc2ccc(C(F)(F)F)cn2)cc2c1OCCC2 (stereo not shown) [Compound 176, 3-Methyl-2-oxo-N-(6-((5-(trifluoromethyl)pyridin-2-yl)oxy)chroman-8-yl)-imidazolidine-4-carboxamide]
< 50	CN1C(=O)CCC1C(=O)Nc1cc(Oc2ccc(C(F)(F)F)cn2)cc2c1OCCC2 (stereo not shown) [Compound 177, 1-Methyl-5-oxo-N-(6-((5-(trifluoromethyl)pyridin-2-yl)oxy)chroman-8-yl)-pyrrolidine-2-carboxamide]
< 50	CN1C(=O)NCC1C(=O)Nc1cc(Oc2ccc(C(F)(F)F)cn2)cc2c1OCO2 (stereo not shown) [Compound 178, 3-Methyl-2-oxo-N-(6-((5-(trifluoromethyl)pyridin-2-yl)oxy)benzo[d]-[1,3]dioxol-4-yl)imidazolidine-4-carboxamide]
< 50	O=C(Nc1cc(Oc2ccc(C(F)(F)F)cn2)cc2c1OCO2)C1CCC(=O)N1C1CC1 (stereo not shown) [Compound 179, 1-Cyclopropyl-5-oxo-N-(6-((5-(trifluoromethyl)pyridin-2-yl)oxy)benzo[d]-[1,3]dioxol-4-yl)pyrrolidine-2-carboxamide]
< 50	CN1C(=O)NC[C@H]1C(=O)Nc1cc(Oc2ccc(C(F)(F)F)cn2)cc2c1OCO2 [Compound 180, (S)-3-Methyl-2-oxo-N-(6-((5-(trifluoromethyl)pyridin-2-yl)oxy)benzo-[d][1,3]dioxol-4-yl)imidazolidine-4-carboxamide]
301 to 2000	CN1C(=O)NC[C@@H]1C(=O)Nc1cc(Oc2ccc(C(F)(F)F)cn2)cc2c1OCO2 [Compound 181, (R)-3-Methyl-2-oxo-N-(6-((5-(trifluoromethyl)pyridin-2-yl)oxy)benzo-[d][1,3]dioxol-4-yl)imidazolidine-4-carboxamide]
